Measurements: publication PMC5293833, “Mycobacterium tuberculosis Prolyl Oligopeptidase Induces In vitro Secretion of Proinflammatory Cytokines by Peritoneal Macrophages” (Frontiers in Microbiology, 2017)
Starred links: 1 amine or outer side, 2 acyl side, 3 side chain; linkers in the order of their positions; H or OH if unused. Residues, ends and D or L forms follow the SMILES beside them. *: point of attachment. AMC = Cc1cc(=O)oc2cc(N*)ccc12; Suc = O=C(CCC(=O)[*:2])[*:1]

How the values were obtained:
Type in all cases: biochemical
[1] = target: T1, prolyl oligopeptidase (POPMt) (Mycobacterium tuberculosis, UniProt O07178); experiment: fluorogenic AMC substrate assay, % inhibition at […]
T1 construct: gene Rv0457c
T1 sequence (O07178 entry or part of it): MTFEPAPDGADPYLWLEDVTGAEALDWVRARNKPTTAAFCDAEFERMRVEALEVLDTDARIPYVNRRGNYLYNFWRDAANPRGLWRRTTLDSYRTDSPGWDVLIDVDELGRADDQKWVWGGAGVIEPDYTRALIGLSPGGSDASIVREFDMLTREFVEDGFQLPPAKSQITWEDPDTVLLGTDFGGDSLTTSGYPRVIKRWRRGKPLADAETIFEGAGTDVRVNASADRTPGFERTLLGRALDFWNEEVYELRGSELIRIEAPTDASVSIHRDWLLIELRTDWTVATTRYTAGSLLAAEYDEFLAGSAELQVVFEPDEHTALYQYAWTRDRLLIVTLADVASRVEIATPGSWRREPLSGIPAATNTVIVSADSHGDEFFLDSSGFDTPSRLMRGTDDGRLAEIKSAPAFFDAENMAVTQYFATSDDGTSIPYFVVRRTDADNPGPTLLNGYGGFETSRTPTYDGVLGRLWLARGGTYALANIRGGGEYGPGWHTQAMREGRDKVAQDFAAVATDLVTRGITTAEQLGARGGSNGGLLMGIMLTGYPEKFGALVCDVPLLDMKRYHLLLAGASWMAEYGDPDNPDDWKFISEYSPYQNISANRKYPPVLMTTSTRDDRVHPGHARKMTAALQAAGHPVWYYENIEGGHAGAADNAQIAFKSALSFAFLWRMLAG

[2] = target: T1, prolyl oligopeptidase (POPMt)
[3] = target: T1, prolyl oligopeptidase (POPMt); experiment: fluorogenic AMC substrate assay, % inhibition at […]; conditions: 1000 µM

| SMILES | inhibition at 100 µM [1] | other results |
| --- | --- | --- |
| Cc1ccc(S(=O)(=O)N[C@@H](Cc2ccccc2)C(=O)CCl)cc1 [TPCK] | 66% | – |
| Cc1cc(=O)oc2cc(NC(=O)[C@@H]3CCCN3C(=O)CNC(=O)CCC(=O)O)ccc12 [N-Suc-Gly-Pro-AMC] (Suc-Gly-Pro-{AMC}) | – | Relative activity (%) [2]: 48 % relative activity |
| Cc1ccc(S(=O)(=O)N[C@@H](CCCCN)C(=O)CCl)cc1 [TLCK] | 35% | – |
| NCCc1ccc(S(=O)(=O)F)cc1 [AEBSF] | – | Inhibition (%) [3]: 33 |
